Assays:
[1] = Permeation across the porcine intestine (Franz diffusion cell); format: in vitro ADME; details: 37° C., receiver PBS pH 7.4
Experimental: The Silymarin-CAPTISOL® complex was tested for its permeability in the GI tract using the porcine intestine and the silymarin solution without CAPTISOL® as a control sample. Freshly excised porcine intestine was cleaned and sandwiched between the two chambers of a Franz diffusion cell with an active diffusion area of 0.64 cm^2. The donor chamber was filled with 0.5 ml of CAPTISOL® enabled silymarin solution (prepared using ligand method) or pure silymarin in Phosphate buffered saline (PBS): Ethanol (80:20) used as a positive control. Receiver chamber was filled with 5 ml of PBS, pH 7.4, which is stirred at 600 rpm with a 3 mm magnetic stir bar at 37° C. temperature maintained with a circulating water bath. 200 μL of buffer from receiver side was withdrawn at different time intervals (0, 1, 2, 4, 6 and 8 h) and equal volume was replaced with fresh PBS buffer. Above samples were transferred into vials and subjected to HPLC analysis.
The control sample was prepared by adding excess of the silymarin extract to Phosphate buffered saline (PBS): Ethanol (80:20). These samples were shook at room temperature for 24 hr, and at equilibrium the samples were centrifuged at 10,000 RPM and filtered using Millipore (0.22 μm) syringe filter. The filtrates were analyzed using HPLC for Taxifolin, Silychristin, Silydianin, Silybin A, Silybin B, Isosilybin A and Isosilybin B after appropriate dilution. […]

[2] = Log D of silymarin components (octanol/buffer, HPLC); format: physicochemical; details: octanol/universal buffer pH 7.4, 16 h shaking at room temperature; read-out: Log D (7.4 pH)
Experimental: Silymarin components including taxifolin, silydianin, silychristin, silybin A, silybin B, isosilybin A, and isosilybin B were tested for their solubility in water and also for their Log D value. The silymarin extract was obtained from Indena® (Indena Code: 9065110). The HPLC system consisted of Waters system equipped with performance PLUS inline degasser along dual λ absorbance detector set at 288 nm. The chromatographic separation of silymarin constituents was achieved on a Symmetry Shield RP18 column (150×4.6 mm, 5 μm); which was maintained at ambient room temperature conditions. The binary mobile phase system consisted of reservoir A (methanol: 10 mM ammonium acetate pH 5 [65:35 v/v]) and reservoir B (10 mM ammonium acetate, pH 5) were run as per gradient program (0-1.9 min: 25% A and 75% B; 2.0-14.9 min: 80% A and 20% B and 15-37.9 min: 80% A and 20% B and 38-40 min: 25% A and 75% B). The flow rate was 1 mL/min throughout the analytical run.
To determine the Log D of silymarin components, the silymarin extract (2 mg) was dissolved in 100% DMSO and then used for the experiment. Different buffers between pH ranges of 1.0 to 12 were prepared by using universal buffer stock containing 25 mM hydrochloric acid, 25 mM citric acid, 25 mM phosphoric acid, 30 mM boric acid and 20 mM sodium chloride. About 45 mL of universal buffer was titrated with Sodium hydroxide (5M) to obtain desired pH. A 10 μL of silymarin stock solution was spiked into Eppendorf tube containing 500 μL each of a buffer and presaturated octanol. This mixture was vortexed for 5 minutes and kept for shaking at room temperature. After 16 h, the mixture was centrifuged at 10,000 RPM for 30 minutes. After centrifugation buffer and octanol phases were separated, both phases were diluted with acetonitrile (1:1) and subject to HPLC analysis for quantitation of individual components of silymarin. The Log D values of each compound at a pH was determined by Log D (pH)=Log [Organic (peak area)/Aqueous (peak area)].

[3] = Silymarin solubility at elevated temperatures (Example 3, HPLC); format: physicochemical; details: 160 mg silymarin in 1 ml 0.1 M CAPTISOL®, sealed vial, 70-75° C., about one hour
Experimental: The solubility of silymarin was also studied at elevated temperatures. The silymarin-water samples were prepared by adding 3.0 ml of deionized water or 3.0 ml of CAPTISOL® solution (0.05 M, 0.10 M, or 0.20 M) to 155 mg silymarin 80% in 5 ml Eppendorf tube, and the tubes were capped securely to minimize evaporation loss and submerged in a water bath at an elevated temperature (60° C. or 75° C.)). CAPTISOL® solutions were prepared by dissolving CAPTISOL® in water. The solution in the tube was stirred for a certain amount of time. The solution was then centrifuged for 5 min twice and the supernatant was diluted with 40% methanol for HPLC analysis. The silymarin CAPTISOL® samples were diluted by adding 10 μL supernatant sample to 990 μL diluent. The silymarin water samples were diluted by adding 100 μL supernatant sample to 900 μL diluent. The diluted samples were then analyzed using HPLC according to the procedures described in Example 1.
Saturated CAPTISOL® silymarin solutions were also prepared by adding 160 mg silymarin to 1 ml of 0.1 M CAPTISOL® solution in a sealed vial under mechanic stirring and the vial was kept in a water bath at 70-75° C. The solution became quickly saturated in about one hour. The solution was then cooled to room temperature and centrifuged, and the supernatant can then be used for preparing various formulations. […]

Apparent permeability coefficient Papp × 10^−3 ([1]; Silymarin CAPTISOL® complex in donor chamber): 9.46 × 10^−3
Apparent permeability coefficient Papp × 10^−3 ([1]; Silymarin in Ethanol:PBS (20:80) (control)): 1.12 × 10^−3
logD at 16 h [2]: 1.35
concentration fold higher than in the water silymarin sample [3]: 5 fold
SMILES: O=C1c2c(O)cc(O)cc2O[C@H](c2ccc(O)c(O)c2)[C@H]1O [Taxifolin]

Reference: patent publication US10702568B2, “Compositions containing silymarin and sulfoalkyl ether cyclodextrin and methods of using the same” (UNIVERSITY OF KANSAS, priority 2015, dated 2020)
